In US20230174497A1, “RHEIN AMIDE DERIVATIVE AND PREPARATION METHOD AND USE THEREOF, AND INHIBITOR OF HEPATOCELLULAR CARCINOMA (HCC) WITH SPECIFIC RECQL4 EXPRESSION” (Shandong First Medical University & Shandong Academy of …, priority 2021, published 2023):

Columns and labels:
hepatocytes LO2 = test: CCK-8 cell proliferation assay, LO2 cells; format: cell-based; conditions: Hepatocyte, 48 h culture, CCK-8, OD 450 nm, Mean ± S.E.M
Experimental: (§1) The effects of the above-prepared rhein amide derivatives on cell proliferation were detected by a CCK-8 kit.
(§2) The CCK-8 kit can evaluate a proliferation activity of cells by detecting an absorbance at a 450 nm wavelength. SNU398 and LO2 cells were digested to obtain a cell suspension, the cell suspension was diluted with a medium to a density of about 5×10^3 cells/well, 100 µl of cell liquid was added to each well, and a blank group and a negative control group were set up. About 1.0000 mg of the derivative was added in a 0.5 mL EP tube, mixed with dimethyl sulfoxide (DMSO) to prepare a 5×10^-2 M stock solution, and stored at -20° C.
(§3) The stock solutions of 21 compounds prepared in the examples and comparative examples were diluted to final concentrations of 100 µmol/L, 20 µmol/L, 4 µmol/L, 0.8 µmol/L, and 0.16 µmol/L separately using a concentration gradient stepwise dilution method. An original medium in a 96-well plate was discarded by aspiration, 100 µl of the dilutions of the 17 compounds were added to the 96-well plate, and three parallel wells were set up. The dilutions were culture in a cell culture incubator for 48 h. […] A stronger inhibitory ability led to a lower IC50 value, and results were listed in Table 1; statistical analysis and drawing of experimental data was conducted using Graphpad-prism 6.0 software, and a mean ± standard deviation was expressed as (Mean ± S.E.M).

HCC cells SNU398 = test: CCK-8 cell proliferation assay, SNU398 cells; format: cell-based; conditions: for IC50: Homo sapiens, SNU-398, SNU398 cells (high RECQL4 expression), 48 h culture, CCK-8, OD 450 nm, Mean ± S.E.M; for IC50 on HCC cells SNU398 compared with IC50 on hepatocytes LO2 (selectivity in words): SNU398 versus LO2, CCK-8, 48 h
Experimental: as §1, §2, §3

| melting point [°C] | IC50 (HCC cells SNU398) [µM] | Structure (SMILES) | IC50 (hepatocytes LO2) [µM] | IC50 on HCC cells SNU398 compared with IC50 on hepatocytes LO2 (selectivity in words) (HCC cells SNU398) |
| --- | --- | --- | --- | --- |
| 202 to 202.3 | 66.8 ± 2.21 | CCOC(=O)CCC(NC(=O)c1cc(O)c2c(c1)C(=O)c1cccc(O)c1C2=O)C(=O)OCC (centres unmarked) [Example 3, diethyl(4,5-dihydroxy-9,10-dioxo-9,10-dihydroanthracene-2-carbonyl) glutamate] | 114 ± 4.11 | – |
| – | – | CC(C)CNC(=O)c1cc(O)c2c(c1)C(=O)c1cccc(O)c1C2=O [Comparative Example 8, 4,5-dihydroxy-N-isobutyl-9,10-dioxy-9,10-dihydroanthracene-2-carboxamide] | 118 ± 12.3 | – |
| 177.2 to 178 | 19.8 ± 1.23 | CCOC(=O)C(CCSC)NC(=O)c1cc(O)c2c(c1)C(=O)c1cccc(O)c1C2=O (centres unmarked) [Comparative Example 6, ethyl(4,5-dihydroxy-9,10-dioxo-9,10-dihydroanthracene-2-carbonyl)methioninate] | 7.77 ± 0.45 | – |
| 244.5 to 249.4 | 111 ± 12.5 | COc1ccc(CNC(=O)c2cc(O)c3c(c2)C(=O)c2cccc(O)c2C3=O)cc1 [Comparative Example 9, 4,5-dihydroxy-N-(4-methoxybenzyl)-9,10-dioxy-9,10-dihydroanthracene-2-carboxamide] | 106 ± 9.72 | – |
| 167 to 167.5 | 47.1 ± 11.5 | CCOC(=O)C(NC(=O)c1cc(O)c2c(c1)C(=O)c1cccc(O)c1C2=O)C(C)CC (centres unmarked) [Comparative Example 4] | 18.2 ± 1.56 | – |
| 270.1 to 272.2 | 222 ± 18.7 | CC(=O)c1ccc(N2CCN(C(=O)c3cc(O)c4c(c3)C(=O)c3cccc(O)c3C4=O)CC2)cc1 [Comparative Example 10, 3-(4-(4-acetylphenyl)piperazin-1-carbonyl)-1,8-dihydroxyanthracene-9,10-dione] | 104 ± 9.96 | – |
| 236.3 to 237.9 | 0.46 ± 0.08 | COC(=O)C(C)NC(=O)c1cc(O)c2c(c1)C(=O)c1cccc(O)c1C2=O (centres unmarked) [Example 1, methyl(4,5-dihydroxy-9,10-dioxy-9,10-dihydroanthracene-2-carbonyl) alaninate] | 5.41 | much smaller than the IC50 on hepatocytes LO2 |
| 167.9 to 170 | 188 ± 94.4 | CCOC(=O)C(CC(C)C)NC(=O)c1cc(O)c2c(c1)C(=O)c1cccc(O)c1C2=O (centres unmarked) [Comparative Example 3, ethyl(4,5-dihydroxy-9,10-dioxo-9,10-dihydroanthracene-2-carbonyl)leucinate] | 57.1 ± 3.25 | – |
| 171 to 172.7 | 166 ± 7.62 | CCOC(=O)C(Cc1ccccc1)NC(=O)c1cc(O)c2c(c1)C(=O)c1cccc(O)c1C2=O (centres unmarked) [Comparative Example 5, ethyl (4,5-dihydroxy-9,10-dioxy-9,10-dihydroanthracene-2-carbonyl) phenylalaninate] | 228 ± 7.25 | – |
| 174.7 to 175.2 | 27.9 ± 3.45 | CCOC(=O)CC(NC(=O)c1cc(O)c2c(c1)C(=O)c1cccc(O)c1C2=O)C(=O)OCC (centres unmarked) [Example 4, diethyl(4,5-dihydroxy-9,10-dioxo-9,10-dihydroanthracene-2-carbonyl)aspartate] | 117 | much smaller than the IC50 on hepatocytes LO2 |
| 215.2 to 215.9 | 5.85 ± 0.49 | CCCCNC(=O)c1cc(O)c2c(c1)C(=O)c1cccc(O)c1C2=O [Example 6, N-butyl-4,5-dihydroxy-9,10-dioxy-9,10-dihydroanthracene-2-carboxamide] | 113 ± 8.56 | much smaller than the IC50 on hepatocytes LO2 |
| 179.7 to 182.3 | 470 ± 84.2 | CCC(C)C(NC(=O)c1cc(O)c2c(c1)C(=O)c1cccc(O)c1C2=O)C(=O)OC (centres unmarked) [Comparative Example 2, methyl 2-(4,5-dihydroxy-9,10-dioxy-9,10-dihydroanthracene-2-carboxamide)-3-methylvalerate] | 80.4 ± 2.36 | – |
| 175.1 to 176.3 | 25.9 ± 6.94 | COC(=O)C(CC(C)C)NC(=O)c1cc(O)c2c(c1)C(=O)c1cccc(O)c1C2=O (centres unmarked) [Comparative Example 1, methyl (4,5-dihydroxy-9,10-dioxo-9,10-dihydroanthracene-2-carbonyl)leucine] | 0.81 ± 0.16 | – |
| 202.1 to 202.7 | 161 ± 4.53 | CCOC(=O)C(NC(=O)c1cc(O)c2c(c1)C(=O)c1cccc(O)c1C2=O)C(C)C (centres unmarked) [Comparative Example 7, ethyl(4,5-dihydroxy-9,10-dioxo-9,10-dihydroanthracene-2-carbonyl)valerate] | 13.7 ± 0.89 | – |
| 196.7 to 197.2 | 8.81 ± 0.78 | CCOC(=O)C(CC)NC(=O)c1cc(O)c2c(c1)C(=O)c1cccc(O)c1C2=O (centres unmarked) [Example 2, ethyl 2-(4,5-dihydroxy-9,10-dioxy-9,10-dihydroanthracene-2-carboxamide)butanoate] | 104 ± 9.36 | much smaller than the IC50 on hepatocytes LO2 |
| 222.2 to 222.8 | 19 ± 1.96 | CCOC(=O)N1CCN(C(=O)c2cc(O)c3c(c2)C(=O)c2cccc(O)c2C3=O)CC1 [Example 7] | 26.3 ± 15.8 | – |
| 264.1 to 265 | 116 ± 5.25 | CCCNC(=O)c1cc(O)c2c(c1)C(=O)c1cccc(O)c1C2=O [Example 5, 4,5-dihydroxy-9,10-dioxo-n-propyl-9,10-dihydroanthracene-2-carboxamide] | 228 ± 10.8 | – |
